The values that follow come from article PMC6915728 (Nature Communications, 2019).

Experiment [1] deals with E. coli essential gene hypomorphic alleles. Briefly: Chemical-genetic screen of 279 essential gene hypomorphs on high-density agar plates (AMPs and antibiotics). Format: cell-based, Escherichia coli. As to conditions: folA hypomorphic allele, sub-inhibitory AMP (50% growth inhibition of wild type), 32 °C, 20 h. The source says:
Chemical-genetic profiling based on gene depletion captures a different aspect of resistance determinants than gene overexpression. […] To investigate the intrinsic AMP resistome, we initiated a chemical-genetic screen with a set of 279 partially depleted essential genes (hypomorphic alleles; see Methods) of E. coli. […] Then, using a well-established high-density agar plate assay[19],[33], we determined their chemical-genetic interaction profiles across the hypomorphic alleles (Supplementary Data 5). […]
Analogous to our E. coli synthetic genetic array approach, our chemical-genetics screening strategy involves robotic pinning of each Kan^R marked single essential gene hypomorph arrayed in 384 colony format on Luria Broth (LB) medium, in quadruplicate, onto the minimal medium containing AMPs under a selected concentration, in two replicates, generating eight replicates in total for each essential gene hypomorph. […] The normalized colony sizes from the AMP plate was subtracted from their corresponding colony screened without AMP to estimate the final hypomorphic-strain fitness score (sensitive or resistant), which is as an average of all eight replicate measurements recorded for each hypomorphic allele. A z-score distribution based p-value was calculated for all interactions and those with p ≤ 0.05 were deemed as significant interactions. […]

A further experiment deals with E. coli. Particulars: previous laboratory evolution experiment; cited from earlier work. The source says: The results presented in this study may have important implications for the development of AMP-based therapies. Previous works reported several instances of cross-resistance interactions between membrane-targeting peptides (Supplementary Data 1), however, the potential for cross-resistance across AMPs with different modes of action has remained poorly understood. Specifically, while cross-resistance between host and therapeutic AMPs is certainly a realistic danger, not all AMPs are equally prone to cross-resistance. Given the immense diversity of AMPs with major differences in physicochemical ...

In the case of “RRRPRPPYLPRPRPPPFFPPRLPPRIPPGFPPRFPPRFP [PR39, PR-39, cathelicidin, source pig; cluster C4]”, the “Effect of folA depletion on susceptibility” value in experiment [1] is on record as “sensitivity”. “RWCFRVCYRGICYRKCR [TPII, Tachyplesin II, antimicrobial peptide from Japanese horseshoe crab; disrupts cell membrane; cluster C1]”: the “Emergence of resistant lines in laboratory evolution” value in the experiment on E. coli is recorded as “did not result in any significant resistant lines”.
